Test results: patent publication US10800754B2, “Heterocyclic amide compound” (TAKEDA PHARMACEUTICAL COMPANY LIMITED, priority 2016, dated 2020)

Legend:
human PRS protein = target: T1, human PRS protein (Homo sapiens, UniProt P07814); assay: PRS inhibitory activity (ATP/[32P]pyrophosphate exchange enzyme reaction); type: biochemical; details: 300 nM test compound; recombinant human PRS (EPRS 998-1512); read-out: inhibitory rate (%) of PRS
T1 construct: to construct His-Avi-hEPRS (998-1512) expression plasmid; His tag (N); Avi tag (N); TEV cleavage site (ENLYFQ/GS, encoded by forward primer hEPRS-TEV-NheF) (N); made in house; host or cells: E. coli BL21(DE3)
T1 sequence (P07814 998-1512): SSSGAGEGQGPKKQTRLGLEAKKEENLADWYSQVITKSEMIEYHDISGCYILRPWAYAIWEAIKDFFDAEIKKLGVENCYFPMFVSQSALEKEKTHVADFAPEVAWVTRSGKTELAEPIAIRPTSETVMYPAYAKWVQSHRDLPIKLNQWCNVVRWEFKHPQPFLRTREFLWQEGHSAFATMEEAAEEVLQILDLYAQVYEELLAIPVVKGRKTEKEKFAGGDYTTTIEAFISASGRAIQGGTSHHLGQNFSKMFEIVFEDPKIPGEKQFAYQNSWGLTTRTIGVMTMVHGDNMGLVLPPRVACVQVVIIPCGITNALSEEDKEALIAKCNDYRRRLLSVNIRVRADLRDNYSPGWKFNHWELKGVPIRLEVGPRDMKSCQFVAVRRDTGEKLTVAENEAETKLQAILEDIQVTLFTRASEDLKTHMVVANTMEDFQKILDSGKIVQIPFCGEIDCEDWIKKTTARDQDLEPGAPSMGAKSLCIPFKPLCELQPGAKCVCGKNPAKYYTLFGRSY
Experimental: The PRS inhibitory activity of the compounds of the present invention was evaluated by the following method.
An expression plasmid of Catalytic Domain of human EPRS was obtained by PCR using human skeletal muscle cDNA Library (Takara Bio Inc.) as a template and 2 kinds of Primers 5′-[…]-3′ (hEPRS-TEV-NheF) (SEQ ID NO: 1) and 5′-[…]-3′ (hEPRS-St-Not-R) (SEQ ID NO: 2). PCR was performed using PrimeStar GXL DNA Polymerase (Takara Bio Inc.) and included (1) 98° C., 1 min, (2) cycles of 98° C., 10 sec, 65° C., 10 sec, 72° C., 1 min, and (3) reaction at 72° C., 1 min. This was cleaved with Nhe I and Not I (Takara Bio Inc.) and inserted using Ligation High (TOYOBO CO., LTD.) into the Nhe I/Not I site of pET21a (Novagen) with His-Avitag inserted thereinto. This was introduced into ECOS JM109 (NIPPON GENE CO., LTD.) to construct His-Avi-hEPRS (998-1512) expression plasmid.
Recombinant human PRS protein was prepared by transforming the His-Avi-hEPRS (998-1512) expression plasmid prepared above into ECOS Competent E. coli BL21(DE3) (NIPPON GENE CO., LTD.). Escherichia coli obtained by transformation was inoculated into 300 mL of LB medium (1% peptone, 0.5% yeast extract, 0.5% sodium chloride, 0.01% ampicillin) and cultured at 30° C. for 16 hr. The obtained culture medium was transferred into a jar culture tank charged with 6 L of the main fermentation medium (0.3% potassium dihydrogen phosphate, 0.6% disodium hydrogen phosphate, 0.1% ammonium chloride, 0.05% sodium chloride, 0.024% magnesium sulfate, 0.02% NEWPOL LB-625, 1.5% sorbitol, 1.5% casamino acid, 0.5% yeast extract, 0.01% ampicillin) and culturing was started at 37° C., quantity of airflow 5 L/min, stirring rotating speed 400 rpm. At the time point when the turbidity of the culture medium reached about 550 Klett units, the culture temperature was lowered to 16° C., isopropyl-β-D-thiogalactopyranoside (IPTG) was added to the final concentration 0.1 mM, and culturing was performed for another 16 hr to induce expression of human PRS. After completion of culturing, the culture medium was centrifuged at 5,000 rpm for 10 min. The obtained human PRS expressing Escherichia coli was suspended in a buffer containing 50 mM Tris-HCl (pH 8.0), 150 mM NaCl, 1 mM DTT, 5 U/ml Benzonase, 20 mM Imidazole and sonicated using Sonifier (BRANSON). The homogenate was centrifuged (33,000×G, 60 min, Beckman Coulter), the obtained supernatant was subjected to adsorption by passage through Ni-NTA Superflow (QIAGEN) column equilibrated in advance with 50 mM Tris-HCl (pH 8.0), 300 mM NaCl, 1 mM DTT, and elution was performed with a buffer containing 50 mM Tris-HCl (pH 8.0), 300 mM NaCl, 1 mM DTT, 250 mM Imidazole. Furthermore, gel filtration was performed using […] equilibrated in advance with a buffer containing 50 mM Tris-HCl (pH 8.0), 150 mM NaCl, 1 mM DTT, 10% glycerol to give purified human PRS protein. The protein concentration was measured using BCA Protein Assay Kit (PIERCE) and BSA as the standard.
A test compound was dissolved in 5 μL of an assay buffer (50 mM Tris-HCl (pH 7.5), 20 mM KCl, 1 mM DTT, 0.01% Tween 20) and incubated for 60 min with 5 μL of 40 nM human PRS protein dissolved in the assay buffer containing 40 mM MgCl2. An enzyme reaction of the human PRS protein was started by adding 10 μL of a substrate solution containing 300 μM ATP, 160 μM L-Proline, 400 μM pyrophosphate, [^32P]pyrophosphate (PerkinElmer, Waltham, Mass.) prepared to 1 MBq/mL. After incubation at room temperature for 30 min, the reaction was discontinued by adding 50 μL of discontinuation/washing solution (1M HCl, 200 mM sodium pyrophosphate) to the reaction mixture. The reaction solution was transferred to a filter plate (Merck Millipore, Billerica, Mass.) previously added with 200 μL of charcoal solution (0.5% HCl solution containing 10% charcoal (w/v)). […]

[1] = tested on: human ovarian cancer cell A2780; assay: proliferation inhibitory activity against A2780 cells (CellTiter-Glo); type: cell-based; details: A2780, 72 h, 1 μM test compound, 3 days of culture, read-out: proliferation inhibitory rate (%) of A2780 cells
Experimental: The proliferation inhibitory activity of the compound of the present invention against human ovarian cancer cell A2780 was evaluated by the following method.
Human ovarian cancer cells A2780 were seeded in a 384 well culture plate at 1000 cells in 30 μL of medium per well by using RPMI-1640 medium (Wako Pure Chemical Industries, Ltd.) containing 10% fetal bovine serum and penicillin/streptomycin. The next day, 10 μL of RPMI-1640 medium containing the test compound was added to the cells. After 3 days of culture, 20 μL of CellTiter-Glo Luminescent Cell Viability Assay solution (Promega, Fitchburg, Wis., US) was added. The luminescence signal was measured using EnVision (PerkinElmer, Waltham, Mass., US) and the inhibitory rate (%) of the test compound was calculated with a well free of seeding of cell as 100% inhibition.

Structure (SMILES) | inhibition at 0.3 µM (human PRS protein) [%] | inhibition at 1 µM [1] [%]
CC(C)(O)CCn1cc(-c2cccc(CC(=O)Nc3cc(N4CC[C@@](C#N)(C5CC5)C4=O)ccn3)c2)cn1 [Example 100, N-(4-((3S)-3-cyano-3-cyclopropyl-2-oxopyrrolidin-1-yl)pyridin-2-yl)-2-(3-(1-(3-hydroxy-3-methylbutyl)-1H-pyrazol-4-yl)phenyl)acetamide] | 101 | 84
Cn1ccc(-c2cccc(CC(=O)Nc3cc(N4CC[C@@](C#N)(C5CC5)C4=O)ccn3)c2)cc1=O [Example 51, N-(4-((3S)-3-cyano-3-cyclopropyl-2-oxopyrrolidin-1-yl)pyridin-2-yl)-2-(3-(1-methyl-2-oxo-1,2-dihydropyridin-4-yl)phenyl)acetamide] | 99 | 52
N#C[C@@]1(C2CC2)CCN(c2ccnc(NC(=O)Cc3cccc(-c4cnsc4)c3)c2)C1=O [Example 50, N-(4-((3S)-3-cyano-3-cyclopropyl-2-oxopyrrolidin-1-yl)pyridin-2-yl)-2-(3-(1,2-thiazol-4-yl)phenyl)acetamide] | 99 | 78
N#C[C@@]1(C2CC2)CCN(c2ccnc(NC(=O)Cc3cccc(-c4cnn(CC5COCCO5)c4)c3)c2)C1=O (stereo partly drawn) [Example 85, N-(4-((3S)-3-cyano-3-cyclopropyl-2-oxopyrrolidin-1-yl)pyridin-2-yl)-2-(3-(1-(1,4-dioxan-2-ylmethyl)-1H-pyrazol-4-yl)phenyl)acetamide] | 99 | 54
Cc1cc(-c2cccc(CC(=O)Nc3cc(N4CC[C@@](C#N)(C5CC5)C4=O)cc(C)n3)c2)cnn1 [Example 103, N-(4-((3S)-3-cyano-3-cyclopropyl-2-oxopyrrolidin-1-yl)-6-methylpyridin-2-yl)-2-(3-(6-methylpyridazin-4-yl)phenyl)acetamide] | 97 | 67
Cn1cc(-c2cccc(CC(=O)Nc3cc(N4CC[C@@](C#N)(C5CC5)C4=O)ccn3)c2)nn1 [Example 47, N-(4-((3S)-3-cyano-3-cyclopropyl-2-oxopyrrolidin-1-yl)pyridin-2-yl)-2-(3-(1-methyl-1H-1,2,3-triazol-4-yl)phenyl)acetamide] | 99 | 66
Cc1cc(N2CC[C@@](C#N)(C3CC3)C2=O)cc(NC(=O)Cc2cc(-c3cnn(C)c3)cc(C(F)(F)F)c2)n1 [Example 59, N-(4-((3S)-3-cyano-3-cyclopropyl-2-oxopyrrolidin-1-yl)-6-methylpyridin-2-yl)-2-(3-(1-methyl-1H-pyrazol-4-yl)-5-(trifluoromethyl)-phenyl)acetamide] | 93 | 51
Cn1cc(-c2cccc(CC(=O)Nc3cc(N4CC[C@@](C#N)(C5CC5)C4=O)ccn3)c2)ccc1=O [Example 41, N-(4-((3S)-3-cyano-3-cyclopropyl-2-oxopyrrolidin-1-yl)pyridin-2-yl)-2-(3-(1-methyl-6-oxo-1,6-dihydropyridin-3-yl)phenyl)acetamide] | 101 | 72
CC(C)(O)Cn1cc(-c2cccc(CC(=O)Nc3cc(N4CC[C@@](C#N)(C5CC5)C4=O)ccn3)c2)cn1 [Example 101, N-(4-((3S)-3-cyano-3-cyclopropyl-2-oxopyrrolidin-1-yl)pyridin-2-yl)-2-(3-(1-(2-hydroxy-2-methylpropyl)-1H-pyrazol-4-yl)phenyl)acetamide] | 99 | 69
Cc1cc(N2CC[C@@](C#N)(C3CC3)C2=O)cc(NC(=O)Cc2cccc(-c3cn(C)nc3C)c2)n1 [Example 102, N-(4-((3S)-3-cyano-3-cyclopropyl-2-oxopyrrolidin-1-yl)-6-methylpyridin-2-yl)-2-(3-(1,3-dimethyl-1H-pyrazol-4-yl)phenyl)acetamide] | 100 | 89
Cc1cc(N2CC[C@@](C#N)(C3CC3)C2=O)cc(NC(=O)Cc2ccccc2)n1 [Example 20, N-(4-((3S)-3-cyano-3-cyclopropyl-2-oxopyrrolidin-1-yl)-6-methylpyridin-2-yl)-2-phenylacetamide] | 94 | 63
Cn1cc(-c2cccc(CC(=O)Nc3cc(N4CC[C@@](C#N)(C5CC5)C4=O)ccn3)c2)cn1 [Example 26, N-(4-((3S)-3-cyano-3-cyclopropyl-2-oxopyrrolidin-1-yl)pyridin-2-yl)-2-(3-(1-methyl-1H-pyrazol-4-yl)phenyl)acetamide] | 100 | 92
N#C[C@@]1(C2CC2)CCN(c2ccnc(NC(=O)Cc3cccc(Br)c3)c2)C1=O [Example 21, 2-(3-bromophenyl)-N-(4-((3S)-3-cyano-3-cyclopropyl-2-oxopyrrolidin-1-yl)pyridin-2-yl)acetamide] | 89 | –
N#C[C@@]1(C2CC2)CCN(c2ccnc(NC(=O)Cc3cccs3)c2)C1=O [Example 16, N-(4-((3S)-3-cyano-3-cyclopropyl-2-oxopyrrolidin-1-yl)pyridin-2-yl)-2-(2-thienyl)acetamide] | 88 | –
N#C[C@@]1(C2CC2)CCN(c2ccnc(NC(=O)Cc3cccc(-c4cnn(CC5CCCCC5)c4)c3)c2)C1=O [Example 82, N-(4-((3S)-3-cyano-3-cyclopropyl-2-oxopyrrolidin-1-yl)pyridin-2-yl)-2-(3-(1-(cyclohexylmethyl)-1H-pyrazol-4-yl)phenyl)acetamide] | 92 | –
